Laboratory results: US7998682B2, “Method for assessing atherosclerosis by measuring expression of FOS or DUSP1 in monocytes” (The United States of America as represented by the …, priority 2004, dated 2011)

How the values were obtained:
[1] = tested on: DUSP1; experiment: RT-PCR of DUSP1 in human monocytic cell lines stimulated with PMA; type: cell-based; conditions: five human monocytic cell lines, 20 nM PMA
[2] = tested on: FOS; experiment: RT-PCR of FOS in human monocytic cell lines stimulated with PMA; type: cell-based; conditions: five human monocytic cell lines, 20 nM PMA
Description: FIGS. 2A-2D are digital images and graphs showing expression of FOS in human carotid plaque macrophages and in activated human monocytic cells and ApoE KO mouse splenocytes. FIG. 2A is a digital image of fresh frozen sections of human carotid artery plaques stained with hematoxylin and eosin (H&E), negative control immunoglobulin (Control Ig) and antibodies against CD14 or FOS. CD14+ staining of macrophages colocalizes with FOS immunoreactivity (25× magnification). Note that the CD14 staining gives a more diffuse appearance consistent with cell surface plasma membrance staining while the FOS pattern is more punctate consistent with nuclear localization. For the digital image shown as FIG. 2B, from four patients, the corresponding mononuclear cell (MNC), circulating monocyte (Mono) and carotid plaque purified macrophage (Mac) preparations were used for quantitative RT-PCR. The normalized expression levels shown were obtained as described in FIG. 1A. Note the progressively higher pattern of candidate gene expression associated with increasing concentration of monocytes and activation into macrophages. […] Values expressed as mean±SE, P=0.04. […]
Quantitative real-time RT-PCR: mRNA from lystates (10^5 cells) were purified by binding to poly(dT) magnetic beads (Dynal Biotech Inc. Brown Deer, Wis.) and reverse transcribed using Superscript II (Invitrogen, Carlsbad, Calif.). […]

[3] = tested on: THP1 cells; experiment: Monocyte adhesion of PMA-stimulated THP1 cells to plastic substratum; type: cell-based, human
Description: (§1) FIGS. 3A-3B are digital images and graphs showing the functional effects of statin and FOS siRNA inhibition on monocyte activation by PMA. FIG. 3A is a bar graph and a digital image wherein THP1 cells were pretreated with simvastatin and/or mevalonate for 20 hours prior to stimulation with 2 nM PMA. Cell adhesion was determined 4 hours after PMA stimulation; cumulative MCP-1 release into medium was assayed 24 hours after PMA stimulation. […] P values for the difference in cell adhesion and MCP-1 release after statin treatment were 0.004 and 0.04, respectively. FIG. 3B is a bar graph and a digital image wherein THP1 cells were stimulated with 2 nM PMA 30 minutes after siRNA transfection for 4 hours. Control (−) cells were mock transfected without siRNA as a transfection control. […]
(§2) Monocyte function: For pretreatment experiments, cells were incubated with 10 μM simvastatin and/or 1 mM mevalonate for 20 hours prior to stimulation with phorbol 12-myristate 13-acetate (PMA, Sigma, St. Louis, Mo.). Cell adhesion was determined by gently washing off the nonadherent cells twice and pooling them. […] Viable nonadherent and adherent cells were counted using Trypan Blue dye. Cumulative MCP-1 release into the medium was determined using the MCP-1 immunoassay kit (R& D Systems, Minneapolis, Minn.) after 24 hours PMA stimulation.

[4] = tested on: MCP-1; experiment: Cumulative MCP-1 release into medium by PMA-stimulated THP1 cells (immunoassay); type: cell-based, human
Description: as §1, §2

[5] = tested on: FOS protein; experiment: FOS protein level by Western blot in PMA-stimulated THP1 cells; type: cell-based, human; conditions: 1 mM mevalonate added with simvastatin, 20 hours before PMA
[6] = 1 mM mevalonate in medium with simvastatin, 20 hours before PMA

Structure (SMILES): CCCCCCCCCCCCCC(=O)O[C@@H]1[C@@H](C)[C@@]2(O)[C@@H](C=C(CO)C[C@]3(O)C(=O)C(C)=C[C@@H]23)[C@@H]2C(C)(C)[C@]12OC(C)=O [PMA, phorbol 12-myristate 13-acetate]
- DUSP1 expression after PMA stimulation [1]: repressed in two of the cell lines
- FOS expression after PMA stimulation [2]: uniformly induced in all five cell lines

Structure (SMILES): CCC(C)(C)C(=O)O[C@H]1C[C@@H](C)C=C2C=C[C@H](C)[C@H](CC[C@@H]3C[C@@H](O)CC(=O)O3)[C@H]21 [statins, simvastatin]
- reduction in monocyte adhesion to plastic substratum compared to control ([3]; 10 μM simvastatin pretreatment 20 hours, 2 nM PMA, 4 hours after PMA, P=0.004): approximately 70%
- reduction in MCP-1 release into medium compared to control ([4]; 10 μM simvastatin pretreatment 20 hours, 2 nM PMA, 24 hours after PMA, P=0.04): approximately 70%

Structure (SMILES): CC(O)(CCO)CC(=O)O (stereo not shown) [mevalonate]
- effect on statin-induced reduction in monocyte adhesion [3, 6]: specifically reversed
- effect on statin-induced reduction in FOS protein [5]: reversed
- effect on statin-induced reduction in MCP-1 release [4, 6]: specifically reversed
